Reference: patent US20250163057A1, “DCN-1 MODULATING COMPOUNDS AND METHODS OF USE THEREOF” (Cellarity, Inc., priority 2023, published 2025)
pEC50, pIC50: −log10 of the molar value. Like-named read-outs stand apart in the source and are kept apart here.

Key:
[1] = tested on: Cullin-3 (CUL3) neddylation; assay: AlphaLISA assay for Cullin-3 (CUL3) neddylation in TF 1 cells; format: cell-based; conditions: 3 hours treatment
Summary of the method: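 Neddylated CUL3 was quantified by AlphaLISA in lysates of TF 1 cells exposed for 3 h to test compound in IMDM without supplements. Percent inhibition set between vehicle and 1 μM DI-1548 positive control; IC50 derived by Hill-equation fitting of dose-response curves.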

[2] = target: DCN1 (DCUND1) protein PONY domain (Homo sapiens (Human), UniProt Q96GG9); assay: TR-FRET assay, DCN1 binding with FAM-labeled probe; conditions: for IC50: TR FRET IC50 1 hr (nM)
Summary of the method: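 First, the E. coli-derived PONY domain was biotinylated and paired with streptavidin Tb cryptate. Compounds in 0.1% DMSO were then added to DCN1 and FAM-probe (5 nM/20 nM, or 0.31 nM/900 nM total with 800 nM unlabelled) in TritonX, 200 mM NaCl buffer. Finally, TR-FRET ratios were recorded at 1, 5 and 24 hrs.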

[3] = tested on: fetal hemoglobin gene HBG1; assay: HBG1 Nanostring Assay in CD34+ HSPC erythroid differentiation culture; format: cell-based, human; conditions: for Nanostring Ymax obs (%): relative to a control compound (C1); for pEC50: HBG1 induction, Day10 of erythroid differentiation
Experimental: A Nanostring Assay was performed to evaluate the ability of the compounds to induce expression of the fetal hemoglobin gene HBG1 in cells. The data are shown as EC50, with stronger inducers having a lower EC50 value and higher YMax.
Forty eight hours later (day −2), the cells were passaged at a density of 200,000 cells/ml (100 ul/well in 96well culture plate) in complete expantion media. The cells were plated at 200,000 cells/ml on day 0 and day 3, 400,000 cells/ml on day 5 in phase 1 erythroid differentiation containing StemSpan with 2.5 U/mL of EPO (R&D systems, 287-TC-500), 0.5 mg/mL of Holo-Transferrin (Sigma, T0665-500MG), 1× Glutamine (Gluta-Max) (Gibco, 35050-061), 5 μL/mL Lipid Mixture (Sigma, L0288-100ML), 50 ng/mL SCF (R&D Systems, 255-SV-050), 10 ng/mL IL-3 (R&D Systems, 203-IL010) and 10 ng/mL Insulin (Sigma, I9278-5ML) all 200 μl per well in 96 well culture plate. Cells were then passaged at 500,000 cells/ml and 200 μl per well on day 7 in phase 2 Erythroid differentiation (Phase 1 erythroid differentiation removing IL-3) until collection day (Day10). The culture conditions were used for both control DMSO as well as experimental treatments.
For all cell pasagings, cells were centrifuged at 300 g for 8 minutes at room temperature and cell number were normalized by MANTIS and Integra VIAFLO 384. All the compounds are diluted in DMSO and added to complete media by Formulatrix FAST and mixed starting from day −2. Cells were counted by Luna cell counter with AOPI Staining Solution (Nexcelom Bioscience, CS2-0106-25 mL) on day-2. Cells were counted by BD FACSCelesta Flow Cytometer with CountBright™ Plus Absolute Counting Beads (Thermal Fisher Scientific, C36995) and SYTOX AADvanced™ Ready Flow™ Reagent (Invitrogen, R37173) for other passages. Cells were cultured at 37° C. and 5% CO2. DMSO concentration was kept at 0.1% to minimize any effects to the cells by the vehicle. […] Compound plates were kept at room temperature to protect from light to avoid multiple freeze and thaw cycle.
On the collection day (Day10), 100K cells were collected and stored at −80° C. For direct hybridization for Nanostring, 100K cell pellet was lyzed in 25 μL of RLT (QIAGEN, 79216) with 1×β-Mercaptoethanol (Gibco, 21985-023) and shaked at 300-500 RPM for 5 minutes at room temperature. Cell lysate was stored in −80° C. after lysis.
All hybridizations were done in a total volume of 15 μL (3 μL of RNA lysate added to master mix of 12 μL probe A/B, capture probe/reporter probes, proteinase K and attenuation oligos suspended in hybridization buffer). Samples were hybridized at 67° C. for 22 hr. Following hybridization, the tripartide complexes were purified, immobilized by nCounter Prep Station and imaged by Digital Analyzer (nCounter MAX/FLEX Analysis System), to generate digital counts of barcodes corresponding to each target in the multiplexed reaction. Labeled barcodes obtained from unamplified extracts were counted at 555 images or field of view (FOV). The barcode counts for each sample were recorded in Reporter Code Count (RCC) files that are imported into nSolver analysis software (provided with CodeSet by NS) for quality control evaluation.
The quality control (QC) metric included limit of detection QC by checking for wells with less than 100 total counts for positive controls.
Hybridization signals were normalized against the ERCC positive controls and CodeSet Content (housekeeping gene). Briefly, this involved first calculating a sample-specific scaling factor by calculating arithmetic mean of geomeans of all ERCC positive controls with counts more than zero in all samples. Then this arithmetic mean was divided by the geometric mean of each lane to generate a lane-specific normalization factor. All negative controls and target-specific signal values were then normalized by multiplying counts values with their sample-specific scaling factor. The acceptable range for scaling factors is 0.3-3.0. […]

[4] = 24 hr after treatment with compound, read-out: TR FRET IC50 24 hr
[5] = read-out: TR FRET IC50 1 hr, 1 hr after treatment with compound
[6] = 1 hr after treatment with compound

Sequence of DCN1 (DCUND1) protein PONY domain (Q96GG9 60-248): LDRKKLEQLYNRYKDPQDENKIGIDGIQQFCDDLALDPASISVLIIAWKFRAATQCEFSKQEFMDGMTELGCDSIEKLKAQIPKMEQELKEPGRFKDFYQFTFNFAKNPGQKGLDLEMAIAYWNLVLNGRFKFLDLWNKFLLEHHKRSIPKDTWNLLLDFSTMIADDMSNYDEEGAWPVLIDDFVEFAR

Compound | pIC50 ([1]; Homo sapiens, TF-1, 3 h) | pIC50 [2, 4] | pIC50 [2, 5] | Nanostring Ymax obs (%) [3] | pEC50 ([3]; Homo sapiens, 240 h) | IC50 [2, 6] | pIC50 [1] | pEC50 [3]
C=C(CN1CCC1)C(=O)NCc1nn(-c2ccccc2)c2c1[C@H](c1ccc(F)cc1)[C@H](NC(=O)c1cccc(C(F)(F)F)c1)C(=O)N2CC [Compound I-2] | ≥ 7.00 | ≥ 6.70 | ≥ 6.70 | ++ (Nanostring Ymax greater than 50.0 and less than or equal to 100.0) | – | – | – | –
CCN1C(=O)[C@@H](NC(=O)c2cccc(C(F)(F)F)c2)[C@@H](c2ccc(F)cc2)c2c(CN(C#N)CCCN(C)C)nn(-c3ccccc3)c21 [Compound I-247, ˜{N}-[(4˜{S},5˜{S})-3-[[cyano-[3-(dimethylamino)propyl]amino]methyl]-7-ethyl-4-(4-fluorophenyl)-6-oxo-1-phenyl-4,5-dihydropyrazolo[3,4-b]pyridine-5-yl]-3-(trifluoromethyl)benzamide] | ≥ 7.00 | ≥ 6.70 | ≥ 6.70 | ++ (Nanostring Ymax greater than 50.0 and less than or equal to 100.0) | < 6.00 | – | – | –
CCN1C(=O)[C@@H](NC(=O)c2cccc(C(F)(F)F)c2)[C@@H](c2ccc(F)cc2)c2c(CN(C#N)CCCCN(C)C)nn(-c3ccccc3)c21 [Compound I-248, ˜{N}-[(4˜{S},5˜{S})-3-[[cyano-[4-(dimethylamino)butyl]amino]methyl]-7-ethyl-4-(4-fluorophenyl)-6-oxo-1-phenyl-4,5-dihydropyrazolo[3,4-b]pyridine-5-yl]-3-(trifluoromethyl)benzamide] | ≥ 7.00 | ≥ 6.70 | – | ++ (Nanostring Ymax greater than 50.0 and less than or equal to 100.0) | – | 200 to 1000 nM | – | –
CCN1C(=O)[C@@H](NC(=O)c2cccc(C(F)(F)F)c2)[C@@H](c2ccc(F)cc2)c2c(C(=O)N[C@@H](C)C#N)nn(-c3ccccc3)c21 [Compound I-254, (4S,5S)—N—((S)-1-cyanoethyl)-7-ethyl-4-(4-fluorophenyl)-6-oxo-1-phenyl-5-(3-(trifluoromethyl)benzamido)-4,5,6,7-tetrahydro-1H-pyrazolo[3,4-b]pyridine-3-carboxamide] | ≥ 7.00 | ≥ 6.70 | – | ++ (Nanostring Ymax greater than 50.0 and less than or equal to 100.0) | < 6.00 | 200 to 1000 nM | – | –
CCN1C(=O)[C@@H](NC(=O)c2cccc(C(F)(F)F)c2)[C@@H](c2ccc(F)cc2)c2c([C@@H](CCCO)NC#N)nn(-c3ccccc3)c21 [Compound I-399] | ≥ 7.00 | ≥ 6.70 | ≥ 6.70 | ++ (Nanostring Ymax greater than 50.0 and less than or equal to 100.0) | 6.00 to 7.00 | – | – | –
C=C(CN1CC2(CCO2)C1)C(=O)NCc1nn(-c2ccccc2)c2c1[C@H](c1ccc(F)cc1)[C@H](NC(=O)c1cccc(C(F)(F)F)c1)C(=O)N2CC [Compound I-407] | ≥ 7.00 | ≥ 6.70 | ≥ 6.70 | + (Nanostring Ymax greater than or equal to 0.0 and less than or equal to 50.0) | – | – | – | –
CCN1C(=O)[C@@H](NC(=O)c2cccc(C(F)(F)F)c2)[C@@H](c2ccc(F)cc2)c2c([C@H](NC#N)C(F)F)nn(-c3ccccc3)c21 [Compound I-411] | ≥ 7.00 | ≥ 6.70 | ≥ 6.70 | ++ (Nanostring Ymax greater than 50.0 and less than or equal to 100.0) | 6.00 to 7.00 | – | – | –
C=C(CN1CC(O)C1)C(=O)NCc1nn(-c2ccccc2)c2c1[C@H](c1ccc(F)cc1)[C@H](NC(=O)c1cccc(C(F)(F)F)c1)C(=O)N2CC [Compound I-459] | ≥ 7.00 | ≥ 6.70 | ≥ 6.70 | ++ (Nanostring Ymax greater than 50.0 and less than or equal to 100.0) | ≥ 7.00 | – | – | –
C=C(CN(C)CC1COC1)C(=O)NCc1nn(-c2ccccc2)c2c1[C@H](c1ccc(F)cc1)[C@H](NC(=O)c1cccc(C(F)(F)F)c1)C(=O)N2CC [Compound I-574] | ≥ 7.00 | ≥ 6.70 | ≥ 6.70 | ++ (Nanostring Ymax greater than 50.0 and less than or equal to 100.0) | ≥ 7.00 | – | – | –
C=C(CN1CCCC1)C(=O)NCc1nn(-c2ccccc2)c2c1[C@H](c1ccc(F)cc1)[C@H](NC(=O)c1cccc(C(F)(F)F)c1)C(=O)N2CC [Compound I-612] | ≥ 7.00 | ≥ 6.70 | ≥ 6.70 | ++ (Nanostring Ymax greater than 50.0 and less than or equal to 100.0) | – | – | – | –
CCN1C(=O)[C@H](NC(=O)c2cccc(C(F)(F)F)c2)[C@@H](c2ccc(F)cc2)c2c([C@@H](C)NC#N)nn(-c3ccccc3)c21 [Compound I-637] | < 6.00 | 6.00 to 6.70 | – | + (Nanostring Ymax greater than or equal to 0.0 and less than or equal to 50.0) | – | 1000 to 3000 nM | – | –
C=C(CN1CC(C)(O)C1)C(=O)NCc1nn(-c2ccccc2)c2c1[C@H](c1ccc(F)cc1)[C@H](NC(=O)c1cccc(C(F)(F)F)c1)C(=O)N2CC [Compound I-643] | ≥ 7.00 | ≥ 6.70 | ≥ 6.70 | ++ (Nanostring Ymax greater than 50.0 and less than or equal to 100.0) | ≥ 7.00 | – | – | –
C=C(CN1CCC12COC2)C(=O)NCc1nn(-c2ccccc2)c2c1[C@H](c1ccc(F)cc1)[C@H](NC(=O)c1cccc(C(F)(F)F)c1)C(=O)N2CC [Compound I-644] | ≥ 7.00 | ≥ 6.70 | ≥ 6.70 | ++ (Nanostring Ymax greater than 50.0 and less than or equal to 100.0) | < 6.00 | – | – | –
C=C(CN1CC2(CCOC2)C1)C(=O)NCc1nn(-c2ccccc2)c2c1[C@H](c1ccc(F)cc1)[C@H](NC(=O)c1cccc(C(F)(F)F)c1)C(=O)N2CC [Compound I-677] | ≥ 7.00 | ≥ 6.70 | ≥ 6.70 | +++ (Nanostring Ymax greater than 100.0) | – | – | – | –
COC(=O)/C=C/CN(C)Cc1nn(-c2ccccc2)c2c1[C@H](c1ccc(F)cc1)[C@H](NC(=O)c1cccc(C(F)(F)F)c1)C(=O)N2CC(C)C [I-266] | – | 6.00 to 6.70 | 6.00 to 6.70 | + (Nanostring Ymax greater than or equal to 0.0 and less than or equal to 50.0) | – | – | 6.00 to 7.00 | < 6.00
